Read-outs that look alike come from different tables or passages of the source.
What was measured:
OCT1 = molecular target: T1, OCT1 (Homo sapiens, UniProt O15245); assay: Inhibition of model substrate uptake in OCT1-overexpressing HEK293 cells; type: cell-based; set-up: expressed in transfected cells; host or cells: HEK293; conditions: for inhibition at 5 min, 20 μM: OCT1-overexpressing HEK293 cells
T1 sequence (O15245 1-554): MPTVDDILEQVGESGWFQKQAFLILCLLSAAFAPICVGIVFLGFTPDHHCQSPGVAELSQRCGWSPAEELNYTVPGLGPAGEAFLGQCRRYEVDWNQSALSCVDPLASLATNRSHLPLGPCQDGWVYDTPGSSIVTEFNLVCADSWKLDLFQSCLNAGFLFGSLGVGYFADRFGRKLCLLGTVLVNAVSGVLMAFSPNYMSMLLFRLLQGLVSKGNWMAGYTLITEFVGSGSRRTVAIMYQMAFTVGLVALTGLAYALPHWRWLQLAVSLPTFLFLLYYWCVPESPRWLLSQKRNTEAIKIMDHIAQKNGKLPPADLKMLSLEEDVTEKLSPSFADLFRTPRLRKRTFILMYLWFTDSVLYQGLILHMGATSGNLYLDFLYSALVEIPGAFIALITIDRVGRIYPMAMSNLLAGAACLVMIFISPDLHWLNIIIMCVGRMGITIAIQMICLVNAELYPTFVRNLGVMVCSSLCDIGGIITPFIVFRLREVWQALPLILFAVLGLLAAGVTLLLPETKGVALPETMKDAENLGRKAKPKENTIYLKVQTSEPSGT
Experimental: Koepsell and Gorbulev (University of Würzburg, Germany).
Fluorescence quantification was performed in technical duplicates.

OCT2 = molecular target: T2, OCT2 (Homo sapiens, UniProt O15244); assay: Inhibition of model substrate uptake in OCT2-overexpressing HEK293 cells; conditions: for inhibition at 5 min, 20 μM / (S,S)-Ethambutol inhibition [%] / ASP+ inhibition [%] / N-Ethyllidocaine inhibition [%]: OCT2, 20 μM inhibitor; for IC50: IC50, OCT2, Table S5, 2 μM ASP+ as model substrate; for inhibition at 5 min, 20 μM / IC50 / (S,S)-Ethambutol inhibition [%] / ASP+ inhibition [%] / N-Ethyllidocaine inhibition [%]: 5 min
T2 sequence (O15244 1-555): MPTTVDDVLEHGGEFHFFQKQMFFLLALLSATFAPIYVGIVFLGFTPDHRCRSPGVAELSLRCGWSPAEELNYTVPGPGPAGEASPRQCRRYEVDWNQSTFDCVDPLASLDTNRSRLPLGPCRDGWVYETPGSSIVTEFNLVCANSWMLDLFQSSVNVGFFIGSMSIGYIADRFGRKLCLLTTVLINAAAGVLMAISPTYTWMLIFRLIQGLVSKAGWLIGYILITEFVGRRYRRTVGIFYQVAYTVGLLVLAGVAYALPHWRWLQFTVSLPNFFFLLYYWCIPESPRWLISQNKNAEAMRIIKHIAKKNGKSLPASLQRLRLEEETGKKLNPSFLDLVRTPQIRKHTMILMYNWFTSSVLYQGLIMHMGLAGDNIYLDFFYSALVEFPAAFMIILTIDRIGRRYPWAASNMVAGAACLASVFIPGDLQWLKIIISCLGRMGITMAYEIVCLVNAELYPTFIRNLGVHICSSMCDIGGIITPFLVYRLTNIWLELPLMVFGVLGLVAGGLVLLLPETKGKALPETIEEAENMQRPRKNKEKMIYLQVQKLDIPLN

OCT3 = molecular target: T3, OCT3 (Homo sapiens, UniProt O75751); assay: Inhibition of model substrate uptake in OCT3-overexpressing HEK293 cells; type: cell-based
T3 construct: expressed in transfected cells; host or cells: HEK293
T3 sequence (O75751 1-556): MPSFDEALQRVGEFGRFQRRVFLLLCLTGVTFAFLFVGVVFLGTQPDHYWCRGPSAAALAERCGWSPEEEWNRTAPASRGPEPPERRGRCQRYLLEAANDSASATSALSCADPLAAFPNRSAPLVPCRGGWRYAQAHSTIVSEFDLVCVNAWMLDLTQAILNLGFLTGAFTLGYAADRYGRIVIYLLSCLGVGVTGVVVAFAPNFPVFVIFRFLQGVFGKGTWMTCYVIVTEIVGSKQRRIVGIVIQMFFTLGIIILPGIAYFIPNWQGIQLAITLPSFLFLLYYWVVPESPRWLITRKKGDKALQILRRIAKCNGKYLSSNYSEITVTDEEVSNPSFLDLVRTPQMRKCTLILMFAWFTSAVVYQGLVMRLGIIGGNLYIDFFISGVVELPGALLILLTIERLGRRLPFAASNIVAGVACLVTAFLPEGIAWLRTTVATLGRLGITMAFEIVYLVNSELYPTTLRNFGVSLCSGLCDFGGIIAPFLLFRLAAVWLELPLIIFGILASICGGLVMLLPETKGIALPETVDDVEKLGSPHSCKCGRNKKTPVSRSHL
Outline: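 IC50 values were fitted with a Hill equation from net uptake, calculated as uptake in overexpressing HEK293 cells minus empty-vector control uptake. Cells were exposed for 5 min to 2 μM model substrate alone, with 20 μM inhibitor, or with a concentration series. Uptake was quantified by ASP^+ fluorescence or LC–MS/MS after lysis in 80% acetonitrile.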

[1] = human, pH 7.4, probe (S,S)-ethambutol (2 μM), (S,S)-Ethambutol inhibition [%], OCT1, 20 μM inhibitor, 2 μM (S,S)-ethambutol, 5 min
[2] = human, pH 7.4, probe ASP+ (2 μM), OCT1, 20 μM inhibitor, 2 μM ASP+, 5 min, mean of three experiments, read-out: ASP+ inhibition [%]
[3] = human, pH 7.4, probe sumatriptan (2 μM), OCT1, 20 μM inhibitor, 2 μM sumatriptan, 5 min, read-out: Sumatriptan inhibition [%]
[4] = human, OCT2-overexpressing HEK293 cells, pH 7.4, probe (S,S)-ethambutol (2 μM), (S,S)-Ethambutol inhibition [%], 2 μM (S,S)-ethambutol
[5] = human, OCT2-overexpressing HEK293 cells, pH 7.4, probe ASP+ (2 μM), ASP+ inhibition [%], 2 μM ASP+
[6] = human, OCT2-overexpressing HEK293 cells, pH 7.4, probe N-ethyllidocaine (2 μM), N-Ethyllidocaine inhibition [%], 2 μM N-ethyllidocaine
[7] = HEK293, 5 min, read-out: (S)-Zolmitriptan inhibition [%], OCT3, 20 μM inhibitor, 2 μM (S)-zolmitriptan, 5 min
[8] = HEK293, 5 min, read-out: (S,S)-Ethambutol inhibition [%], OCT3, 20 μM inhibitor, 2 μM (S,S)-ethambutol, 5 min
[9] = HEK293, OCT3, 20 μM inhibitor, 2 μM ASP+, 5 min, read-out: ASP+ inhibition [%]
[10] = OCT1, 20 μM inhibitor, 2 μM ASP+, 5 min, mean of three experiments
[11] = OCT3, 20 μM inhibitor, 2 μM ASP+, 5 min
[12] = OCT1, 20 μM inhibitor, 2 μM sumatriptan, 5 min
[13] = OCT3, 20 μM inhibitor, 2 μM (S)-zolmitriptan, 5 min
[14] = HEK293, 5 min, read-out: (S)-Zolmitriptan inhibition [%]
[15] = HEK293, 5 min, read-out: (S,S)-Ethambutol inhibition [%]

Row | Compound | inhibition at 5 min, 20 μM (OCT1; [1]) [%] | inhibition at 5 min, 20 μM (OCT1; [2]) [%] | inhibition at 5 min, 20 μM (OCT1; [3]) [%] | inhibition at 5 min, 20 μM (OCT2; [4]) [%] | inhibition at 5 min, 20 μM (OCT2; [5]) [%] | inhibition at 5 min, 20 μM (OCT2; [6]) [%] | inhibition at 20 µM (OCT3; [7]) [%] | inhibition at 20 µM (OCT3; [8]) [%] | inhibition at 20 µM (OCT3; [9]) [%] | ASP+ inhibition [%] (OCT1; [10]) | ASP+ inhibition [%] (OCT2; 2 μM ASP+) | N-Ethyllidocaine inhibition [%] (OCT2; 2 μM N-ethyllidocaine) | ASP+ inhibition [%] (OCT3; [11]) | (S)-Zolmitriptan inhibition [%] (OCT3; [13]) | other results
1 | CNC[C@H](O)c1cccc(O)c1 [(R)-Phenylephrine] | 6.3 | 3.2 | -2.8 | -8.4 | 8.2 | -1.4 | -2.9 | 5 | -4.1 | – | – | – | – | – | –
2 | CCCN[C@@H]1CCc2nc(N)sc2C1 [(R)-Pramipexole] | 51.6 | 19.8 | 55.8 | 10.5 | 43.3 | 37.1 | 13 | 23.1 | 5.3 | – | – | – | – | – | IC50 (OCT1; OCT1, Table S5, 2 μM ASP+ or ethambutol as model substrate, 5 min, read-out: IC50): 20.2 µM; IC50 (OCT2): 20.4 µM
3 | CC(C)NC[C@@H](O)COc1cccc2ccccc12 [(R)-Propranolol] | 79.9 | 44.8 | 84.3 | 25 | 47.8 | 20 | – | – | – | – | – | – | – | – | IC50 (OCT3; OCT3, Table 1, read-out: IC50): 195 µM
4 | C#CCN[C@@H]1CCc2ccccc21 [(R)-Rasagiline] | 32 | – | 42.7 | – | – | – | 10.3 | 13.4 | – | -1.3 | 51.7 | 56.7 | -11.8 | – | (S,S)-Ethambutol inhibition [%] (OCT2; 2 μM (S,S)-ethambutol): 51.3%
5 | CC(C)(C)NC[C@H](O)c1ccc(O)c(CO)c1 [(R)-Salbutamol] | 12.2 | 5.3 | – | – | – | – | – | 19.5 | – | – | 12.8 | -15.0 | 10.3 | -6.4 | Sumatriptan inhibition [%] (OCT1; [12]): -18.8%; (S,S)-Ethambutol inhibition [%] (OCT2; 2 μM (S,S)-ethambutol): -0.3%
6 | CC(C)C[C@@H](N(C)C)C1(c2ccc(Cl)cc2)CCC1 [(R)-Sibutramine] | – | – | – | – | – | – | – | – | – | 41.5 | 81.6 | 51.2 | 2.6 | – | Sumatriptan inhibition [%] (OCT1; human, pH 7.4): 74.0%; inhibition at 20 µM (OCT3; [14]): 38.1%; inhibition at 20 µM (OCT3; [15]): 35.5%
7 | CC(C)(C)NC[C@@H](O)COc1nsnc1N1CCOCC1 [(R)-Timolol] | 32.1 | 12.9 | 55 | 12 | 37.2 | 24.7 | 7.6 | 8.2 | 28.6 | – | – | – | – | – | IC50 (OCT2): 121 µM; selectivity ratio at 5 min (OCT2; human, OCT2-overexpressing HEK293 cells, pH 7.4): 2
8 | COc1ccc([C@H](CN(C)C)C2(O)CCCCC2)cc1 [(R)-Venlafaxine] | – | – | – | – | – | – | – | – | -2.8 | – | 29.1 | 23.1 | – | – | Sumatriptan inhibition [%] (OCT1; human, pH 7.4): 70.8%; inhibition at 20 µM (OCT3; [14]): 12.6%; inhibition at 20 µM (OCT3; [15]): 12.3%
9 | CCC(CO)NCCNC(CC)CO [(R,R)-Ethambutol] | – | 7.7 | 17.9 | – | 34.4 | 7.7 | – | – | – | – | – | – | 9.1 | -3.7 | –
10 | CCC(CO)NCCNC(CC)CO [(R,S)-Ethambutol] | – | – | – | – | – | – | – | – | – | 4.0 | 26.0 | 6.8 | 2.6 | -8.0 | Sumatriptan inhibition [%] (OCT1; [12]): 10.2%
11 | O=C(OC1C[N+]2(CCCOc3ccccc3)CCC1CC2)C(O)(c1cccs1)c1cccs1 [(S)-Aclidinium] | – | – | – | – | – | – | – | – | – | 78.8 | 101.8 | 57.3 | 37.7 | 53.3 | (S,S)-Ethambutol inhibition [%] (OCT1; OCT1, 20 μM inhibitor, 2 μM (S,S)-ethambutol, 5 min): 101.4%; Sumatriptan inhibition [%] (OCT1; [12]): 93.8%; (S,S)-Ethambutol inhibition [%] (OCT2; 2 μM (S,S)-ethambutol): 2.7%; (S,S)-Ethambutol inhibition [%] (OCT3; OCT3, 20 μM inhibitor, 2 μM (S,S)-ethambutol, 5 min): 67.7%

From paper PMC10698726 (Molecular Pharmaceutics, 2023)
